Data published in publication PMC5522996, “Big conductance calcium‐activated potassium channel openers control spasticity without sedation” (British Journal of Pharmacology, 2017).
“Also recorded” adds a separate entry of the source.

Key:
GABAB = assay: Receptor binding profile of VSN16R; set-up: species or system human; details: 10µM VSN16R
5-HT5A = molecular target: T1, 5-HT5A (Homo sapiens, UniProt P47898); assay: Receptor binding profile of VSN16R; details: 10µM VSN16R
T1 construct: purchased Cerep; Chantest; DiscoveRx; Multispan; MDS Pharma Services

[1] = tested on: spastic ABH mice with EAE; assay: Spasticity: resistance to hindlimb flexion against a strain gauge
5-HT1A = molecular target: T2, 5-HT1A (Homo sapiens, UniProt P08908); assay: Receptor binding profile of VSN16R; details: 10µM VSN16R
T2 construct: purchased Cerep; Chantest; DiscoveRx; Multispan; MDS Pharma Services

A2A = molecular target: T3, A2A (Homo sapiens, UniProt P29274); assay: Receptor binding profile of VSN16R; details: 10µM VSN16R
T3 construct: purchased Cerep; Chantest; DiscoveRx; Multispan; MDS Pharma Services

mouse Gpr55 = molecular target: T4, mouse Gpr55 (Mus musculus, UniProt Q3UJF0); assay: Nuclear CREB expression, DBT cells transfected with mouse Gpr55; type: cell-based; details: 10 μM
T4 construct: expressed in transfected cells; host or cells: DBT cells

CYP450 2C9 = molecular target: T5, CYP450 2C9 (Homo sapiens, UniProt P11712); assay: CYP450 inhibition of substrate binding; type: in vitro ADME; details: read-out: IC50 Inhibition of substrate binding, VSN16R
T5 construct: host or cells: BTI NN-5B1-4 or Sf9 insect cells
Description: (§1) Inhibition of binding of either 3-cyano-7-ethoxycoumarin, dibenzylfluorescein or 7-benzyoxy-4-
(§2) (trifluoromethyl) coumarin in human enzyme transfected BTI NN-5B1-4 cells or Sf9 insect cells or
(§3) inhibition of dextromethorphan substrate to CYP450 2D6 in liver microsomes.

α2(non-selective) = assay: Receptor binding profile of VSN16R; set-up: species or system human; details: 10µM VSN16R
rats [2] = assay: Irwin test; type: in vivo, rat
mouse vas deferens [3] = assay: βγ‐methylene ATP‐induced contraction of electrically unstimulated vas deferens; type: cell-based; details: 100 nM, 30 min before βγ‐methylene ATP
Y1 = molecular target: T6, Y1 (Homo sapiens, UniProt P25929); assay: Receptor binding profile of VSN16R; details: 10µM VSN16R
T6 construct: purchased Cerep; Chantest; DiscoveRx; Multispan; MDS Pharma Services

mouse vas deferens [4] = assay: Electrically‐evoked contraction of the mouse vas deferens; type: cell-based; details: Mus musculus, read-out: EC50, inhibition of electrically‐evoked contraction
Method: Vasa deferentia were obtained from outbred MF‐1 mice and mounted vertically in a 4 mL organ bath at an initial tension of 0.5 g. The baths contained Mg^2+‐free Krebs solution (NaCl 118.2 mM, KCl 4.75 mM, KH2PO4 1.19 mM, NaHCO3 25.0 mM, glucose 11.0 mM and CaCl2·6H2O 2.54 mM), which was kept at 35–36°C and bubbled with 95% O2 and 5% CO2. […] Contractions were monitored by a computer using a data recording and analysis system as described previously (Ross et al., 2001). After placement in an organ bath, each tissue was subjected to a stimulation‐free period of 10 min and then stimulated for 10 min. Tissues were then subjected to alternate periods of stimulation (5 min) and rest (10 min) until consistent twitch amplitudes were obtained. This equilibration procedure was followed by a stimulation‐free period of 25 min. Tissues were then stimulated for 5 min after which the first agonist addition was made and stimulation continued until the end of the experiment.

CYP450 2B6 = CYP450 2B6 (Homo sapiens, UniProt P20813)
Description: as §1, §2, §3

rat mesenteric artery = tested on: rat mesenteric artery; set-up: method as in Hoi et al., 2007; details: ref Hoi et al., 2007; read-out: EC50, vasorelaxation of rat mesenteric arteries; cited from earlier work
EDG1 = molecular target: T7, EDG1 (Homo sapiens, UniProt P21453); assay: Receptor binding profile of VSN16R; details: 10µM VSN16R
T7 construct: purchased Cerep; Chantest; DiscoveRx; Multispan; MDS Pharma Services

[5] = Stability in pooled mouse liver microsomes; type: in vitro ADME; details: pooled mouse liver microsomes, 37°C, upper limit 100 min, read-out: t ½ in liver microsomes
Method: The stability of compounds when subjected to hepatic and plasma degradation was assessed in vitro by Inpharmatica, Cambridge, UK. Compounds (1 μM) were incubated with either pooled mouse liver microsomes (0.1 mg protein mL^−1) or pooled mouse plasma at 37°C for 0, 5, 10, 20 and 40 min before termination with acetonitrile containing warfarin as an analytical internal standard. Samples were centrifuged, and the resultant supernatant analysed for parent compound. The mass responses at baseline were taken as the 100% reference values against which the disappearance of the compound was measured. The natural log of the % remaining values was used to generate linear plots of disappearance of the compounds. Half‐life values were calculated from the slope of these plots. Hepatocyte metabolism was assessed by Cyprotex, Macclesfield, and 10 μM VSN16R was incubated with primary mouse, rat, monkey (Macaque) and human hepatocytes for 1 h, and the presence of metabolites was assessed using liquid […] mass spectroscopy. The stability of VSN16R was assessed in vivo by Inpharmatica, Cyprotex and Charles Rivers, Cambridge. Blood (plasma) samples were obtained prior to and 5 min to 24 h after drug administration of 2–5 mg·kg^−1 i.v. or 5 mg·kg^−1 p.o. VSN16R into outbred mice and rats (n = 3 per time point). […] Data are expressed as mean ± SEM. […]

Na+-Ca2+ exchanger = assay: Receptor binding profile of VSN16R; set-up: species or system human; details: 10µM VSN16R
rats [6] = assay: Reproductive toxicology in rats; type: in vivo, rat; details: p.o.
ML1 = assay: Receptor binding profile of VSN16R; set-up: species or system human; details: 10µM VSN16R

T2 sequence (P08908 whole entry): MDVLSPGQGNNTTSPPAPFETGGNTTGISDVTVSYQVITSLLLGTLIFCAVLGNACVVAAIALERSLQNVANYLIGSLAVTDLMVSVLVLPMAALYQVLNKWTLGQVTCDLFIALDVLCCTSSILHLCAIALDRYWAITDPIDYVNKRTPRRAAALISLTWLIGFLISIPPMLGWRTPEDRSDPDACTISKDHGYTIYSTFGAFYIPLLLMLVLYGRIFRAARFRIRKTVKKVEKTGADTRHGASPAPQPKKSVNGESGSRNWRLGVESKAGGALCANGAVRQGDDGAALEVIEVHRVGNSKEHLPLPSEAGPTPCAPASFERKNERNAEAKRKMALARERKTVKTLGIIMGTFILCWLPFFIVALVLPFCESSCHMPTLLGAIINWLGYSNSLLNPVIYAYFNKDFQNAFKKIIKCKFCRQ
T4 sequence (Q3UJF0 whole entry): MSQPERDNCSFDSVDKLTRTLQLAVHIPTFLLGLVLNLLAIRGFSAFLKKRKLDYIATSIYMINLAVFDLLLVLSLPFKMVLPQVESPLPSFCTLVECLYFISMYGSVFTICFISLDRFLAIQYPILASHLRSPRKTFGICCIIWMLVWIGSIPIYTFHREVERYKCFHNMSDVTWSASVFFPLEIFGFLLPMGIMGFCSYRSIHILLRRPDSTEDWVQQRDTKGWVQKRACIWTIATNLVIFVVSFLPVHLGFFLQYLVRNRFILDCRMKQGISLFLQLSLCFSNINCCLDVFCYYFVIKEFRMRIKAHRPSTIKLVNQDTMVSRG
T5 sequence (P11712 whole entry): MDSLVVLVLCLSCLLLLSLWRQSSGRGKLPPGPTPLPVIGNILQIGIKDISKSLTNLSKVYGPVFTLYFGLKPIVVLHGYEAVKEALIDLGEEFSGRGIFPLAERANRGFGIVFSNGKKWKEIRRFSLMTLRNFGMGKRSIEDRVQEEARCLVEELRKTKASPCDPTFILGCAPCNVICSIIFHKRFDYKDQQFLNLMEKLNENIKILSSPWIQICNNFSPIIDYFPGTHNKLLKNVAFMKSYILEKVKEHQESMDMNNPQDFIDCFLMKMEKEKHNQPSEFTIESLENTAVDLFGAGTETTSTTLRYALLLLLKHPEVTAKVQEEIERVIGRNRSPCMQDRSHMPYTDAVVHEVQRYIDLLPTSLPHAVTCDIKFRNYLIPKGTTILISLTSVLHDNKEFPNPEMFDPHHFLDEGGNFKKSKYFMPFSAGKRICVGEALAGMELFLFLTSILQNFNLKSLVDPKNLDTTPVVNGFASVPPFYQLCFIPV
T1 sequence (P47898 whole entry): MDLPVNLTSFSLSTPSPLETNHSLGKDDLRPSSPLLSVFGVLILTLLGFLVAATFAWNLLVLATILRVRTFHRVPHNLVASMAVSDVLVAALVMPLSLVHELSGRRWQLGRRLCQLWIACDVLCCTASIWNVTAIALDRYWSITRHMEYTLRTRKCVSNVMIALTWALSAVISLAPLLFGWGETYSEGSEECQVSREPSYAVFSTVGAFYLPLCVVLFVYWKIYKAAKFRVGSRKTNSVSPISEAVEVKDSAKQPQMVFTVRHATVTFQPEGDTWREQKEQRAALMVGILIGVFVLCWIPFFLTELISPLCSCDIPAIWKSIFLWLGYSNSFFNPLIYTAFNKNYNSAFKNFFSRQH
T7 sequence (P21453 whole entry): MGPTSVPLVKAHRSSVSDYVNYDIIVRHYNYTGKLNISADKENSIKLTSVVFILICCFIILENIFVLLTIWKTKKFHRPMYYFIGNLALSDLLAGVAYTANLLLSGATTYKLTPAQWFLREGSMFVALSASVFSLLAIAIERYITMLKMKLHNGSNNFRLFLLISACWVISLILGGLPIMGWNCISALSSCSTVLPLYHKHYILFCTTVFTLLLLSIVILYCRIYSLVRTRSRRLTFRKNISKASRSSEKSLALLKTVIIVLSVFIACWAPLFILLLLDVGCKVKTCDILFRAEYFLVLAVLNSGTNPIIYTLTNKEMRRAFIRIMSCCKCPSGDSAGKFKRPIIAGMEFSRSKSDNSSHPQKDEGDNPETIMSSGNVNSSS
T3 sequence (P29274 whole entry): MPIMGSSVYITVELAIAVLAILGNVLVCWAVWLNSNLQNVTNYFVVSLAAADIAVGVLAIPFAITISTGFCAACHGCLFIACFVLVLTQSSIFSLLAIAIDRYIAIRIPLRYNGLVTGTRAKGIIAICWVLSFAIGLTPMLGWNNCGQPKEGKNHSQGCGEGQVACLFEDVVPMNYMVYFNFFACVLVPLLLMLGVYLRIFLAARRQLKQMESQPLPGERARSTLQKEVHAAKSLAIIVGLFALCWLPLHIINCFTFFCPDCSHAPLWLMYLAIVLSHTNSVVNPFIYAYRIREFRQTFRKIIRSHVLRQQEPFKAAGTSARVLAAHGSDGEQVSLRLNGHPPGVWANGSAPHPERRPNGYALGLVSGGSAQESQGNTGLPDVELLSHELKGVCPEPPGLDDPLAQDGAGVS
Chain of CYP450 2B6 (P20813 whole entry): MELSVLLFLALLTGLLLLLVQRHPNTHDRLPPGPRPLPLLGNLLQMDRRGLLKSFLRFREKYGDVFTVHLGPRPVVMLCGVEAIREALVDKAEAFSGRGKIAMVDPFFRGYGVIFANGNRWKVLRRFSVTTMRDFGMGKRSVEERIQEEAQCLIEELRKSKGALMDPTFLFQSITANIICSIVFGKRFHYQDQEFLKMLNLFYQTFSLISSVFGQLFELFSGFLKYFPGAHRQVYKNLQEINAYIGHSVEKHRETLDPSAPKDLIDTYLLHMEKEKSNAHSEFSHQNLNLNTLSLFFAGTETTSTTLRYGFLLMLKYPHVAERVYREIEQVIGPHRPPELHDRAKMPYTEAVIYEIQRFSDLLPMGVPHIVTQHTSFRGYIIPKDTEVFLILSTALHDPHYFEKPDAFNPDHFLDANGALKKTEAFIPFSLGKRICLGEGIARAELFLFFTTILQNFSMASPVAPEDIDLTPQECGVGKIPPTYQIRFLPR
T6 sequence (P25929 whole entry): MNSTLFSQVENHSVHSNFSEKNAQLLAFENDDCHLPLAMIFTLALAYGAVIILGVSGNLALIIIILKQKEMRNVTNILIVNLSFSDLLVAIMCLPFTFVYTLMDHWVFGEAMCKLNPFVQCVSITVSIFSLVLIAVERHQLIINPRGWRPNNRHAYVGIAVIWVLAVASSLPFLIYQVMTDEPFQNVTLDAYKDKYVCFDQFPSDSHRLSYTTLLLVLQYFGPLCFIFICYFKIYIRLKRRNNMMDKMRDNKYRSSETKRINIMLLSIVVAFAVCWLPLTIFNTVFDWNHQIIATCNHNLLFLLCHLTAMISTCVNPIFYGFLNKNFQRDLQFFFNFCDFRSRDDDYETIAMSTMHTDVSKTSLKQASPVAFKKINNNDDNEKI

In the case of `C[C@H](CO)NC(=O)c1cccc(/C=C\CCCC(=O)N(C)C)c1` [VSN16R], the Activity (GABAB) is reported as “Negligible Activity”, the Activity (5-HT5A) is reported as “Negligible Activity” and the Inhibition of spasticity ([1]; 0.5 mg·kg^−1 p.o.) is reported as “failed to produce rapid muscular relaxation and inhibition of spasticity”. The Inhibition of spasticity ([1]; 1 mg·kg^−1 p.o.) was “significant therapeutic activity was evident within 10 min”, the Inhibition of spasticity ([1]; 5 mg·kg^−1 i.v.) was “slightly more active than VSN16S” and the Inhibition of spasticity ([1]; 5 mg·kg^−1 p.o.) was “significant therapeutic activity was evident within 10 min”. The “Mean group score, resistance to flexion (±SD), one mean per animal” value ([1]; 5 mg·kg^−1 p.o., 30 min) was 0.224 ± 0.067 N, the “Mean group score, resistance to flexion (±SD), one mean per animal” value ([1]; 5 mg·kg^−1 p.o., 60 min) was 0.214 ± 0.071 N and the “Therapeutic effect after repeated daily administration” value ([1]; 40 mg·kg^−1 p.o. for 7 days) was “therapeutic effect was sustained”. The “Drop of resistance to flexion from baseline” value ([1]; 40 mg·kg^−1 p.o., visibly spastic animals) was 17.8 ± 5.3%, the “Resistance to flexion force” value ([1]; 2 weeks after cessation of weekly treatment, mean ± SEM) was 0.157 ± 0.045 N and the “Duration of inhibition of spasticity” value ([1]; single dose of 40 mg·kg^−1 p.o.) was “over 6 h”. For the same compound, the Activity (5-HT1A) was “Negligible Activity”, the Activity (A2A) was “Negligible Activity” and the “Activity on DBT cells transfected with mouse Gpr55” value (mouse Gpr55) was “Lack of activity”. For the same compound, the IC50 (CYP450 2C9) was > 10000 nM, the Activity (α2(non-selective)) was “Negligible Activity” and the “Irwin test: Autonomic profile” value (rats [2]; 120mg/kg p.o. in water) was “Unchanged”. The “Irwin test: Behavioural Profile” value (rats [2]; 120mg/kg p.o. in water) was “Unchanged”, the “Irwin test: Neurological profile” value (rats [2]; 120mg/kg p.o. in water) was “Unchanged” and the “Adverse behavioural responses in Irwin tests” value (rats [2]; 120 mg·kg^−1 p.o.) was “did not display any adverse behavioural responses”. The “Effect on βγ‐methylene ATP‐induced contractions” value (mouse vas deferens [3]) was “does not inhibit; also recorded: did not affect”, the Activity (Y1) was “Negligible Activity” and the EC50 (mouse vas deferens [4]) was 10 nM. For the same compound, the IC50 (CYP450 2B6) was > 10000 nM, the EC50 (rat mesenteric artery) was 110 nM and the Activity (EDG1) was “Negligible Activity”. For the same compound, the half-life at 1 μM [5] was > 1.67 h, the Activity (Na+-Ca2+ exchanger) was “Negligible Activity” and the “Reproductive toxicology safe level” value (rats [6]) was 1000 mg·kg^−1. The Activity (ML1) was “Negligible Activity”.
